Assay results taken from patent US20260274836A1, “NOVEL HEPATOSELECTIVE POLYADENYLATING POLYMERASES INHIBITORS AND THEIR METHOD OF USE” (Baruch S. Blumberg Institute, priority 2022, published 2026).
“And” between values parts separate entries of the source, which are not always exact repeats. Equal entries are not always repeated.

Legend:
[1] = Pharmacokinetics after intravenous (IV) administration, plasma; format: in vivo, CD1 mice; parameters: AUClast/D: unit not given here; details: 3 mg/kg IV; for Concentration (ng/mL): plasma
Protocol: Protocol for pharmacokinetic and tissue distribution studies. The pharmacokinetics of the compounds was studied in CD1 mice after intravenous (IV) and oral gavage (PO) administration. Mouse PK studies was conducted at 3 mg/kg (IV) and 8 mg/kg (PO). Plasma samples obtained from dosed animals, at ten time points, including 5, 15 and 30 minutes and 1, 1.5, 2, 4, 6, 8 and 24 hr post-dose for processing to plasma, were prepared for analysis by means of a single step protein precipitation technique, by adding 200 μL of acetonitrile containing an IS mixture (labetalol, imipramine and diclofenac) to 50 μL aliquots of individual subject samples. Samples were mixed by vortex for homogeneity and then subjected to centrifugation at 4000 rpm for 10 min. The supernatant (200 μL) was collected and injected into the LC-MS/MS for analysis. Pharmacokinetic parameters will be calculated using established non-compartmental methods. The liver distribution of the compounds was studied in the PO group and liver tissues were collected at each time point after PO administration. Accurately weighed whole liver tissues were collected in a 50 mL tube, and 3 volumes per weight of water will be added. Tissue samples were homogenized and 50 μL of the homogenates will be processed along with plasma samples as described above.

OATP1B1 = target: T1, OATP1B1 (Homo sapiens, UniProt Q9Y6L6); assay: OATP1B1 transporter substrate uptake in OATP1B1-HEK293 cells; format: in vitro ADME
T1 construct: expressed in transfected cells; host or cells: HEK293
T1 sequence (Q9Y6L6 1-691): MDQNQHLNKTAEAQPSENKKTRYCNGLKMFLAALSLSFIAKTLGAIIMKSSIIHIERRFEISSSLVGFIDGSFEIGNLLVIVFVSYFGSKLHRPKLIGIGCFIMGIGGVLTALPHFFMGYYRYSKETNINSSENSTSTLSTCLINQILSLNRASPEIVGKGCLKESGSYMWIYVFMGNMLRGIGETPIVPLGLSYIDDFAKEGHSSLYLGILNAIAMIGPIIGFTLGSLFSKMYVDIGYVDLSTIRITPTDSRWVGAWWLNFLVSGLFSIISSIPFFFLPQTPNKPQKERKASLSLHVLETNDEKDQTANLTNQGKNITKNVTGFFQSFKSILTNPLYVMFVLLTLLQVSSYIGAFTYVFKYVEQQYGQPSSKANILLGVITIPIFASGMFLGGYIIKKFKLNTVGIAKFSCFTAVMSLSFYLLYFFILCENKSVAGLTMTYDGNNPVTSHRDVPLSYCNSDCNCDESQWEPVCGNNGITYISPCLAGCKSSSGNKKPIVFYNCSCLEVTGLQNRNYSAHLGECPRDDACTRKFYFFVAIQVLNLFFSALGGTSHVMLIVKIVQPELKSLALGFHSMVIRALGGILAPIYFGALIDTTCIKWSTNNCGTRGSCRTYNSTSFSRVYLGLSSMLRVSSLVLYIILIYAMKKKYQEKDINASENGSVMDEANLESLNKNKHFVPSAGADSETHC
Protocol: Protocol for identification of compounds that are substrates of transporters OATPIBI and OATPIB3. Transfected HEK293 and vector control HEK293 cells were cultured in 24-well poly-D-lysine or collagen-coated tissue culture plates ([…]) for 2 and 10 minutes respectively in transport buffer (HBSSg, pH 7.4, pre-warmed to 37° C.). At a defined time point, the uptake experiments were stopped by removing dosing solution followed by two washes of ice-cold HBSSg buffer. The cells were lysed for 2 minutes with 75% ACN containing an appropriate internal standard (when available). Lysis buffer were chilled to −20° C., and the plate was kept on ice during lysis. The cell lysate was transferred into a 96-well plate for sample analysis with LC-MS/MS analysis to determine concentration of test compound in cell lysate. The uptake of test compounds was normalized by total cell protein using the BCA Protein Assay Kit following the manufacturer's protocol. The inhibitor Rifamycin SV was used to block OATP1B1 and OATP1B3 transporter activity in order to determine uptake ratios.

## COc1cc2c(cc1OCCCCCCC(=O)O)C[C@@H](C(C)C)n1cc(C(=O)O)c(=O)cc1-2 [Example 6, (S)-9-((6-carboxyhexyl)oxy)-6-isopropyl-10-methoxy-2-oxo-6,7-dihydro-2H-pyrido[2,1-a]isoquinoline-3-carboxylic acid]
[1]; individual mice
  AUC—% Extrap —obs: 1.59% and 1.03% and 0.662%
  Cl_obs: 187 mL/min/kg and 166 mL/min/kg and 242 mL/min/kg
[1]; mean
  AUClast/D: 85.1
  AUC—% Extrap —obs: 1.09%
  C0: 2568 ng/mL
  Cl_obs: 198 mL/min/kg
[1]; 4 h, individual mice
  Concentration (ng/mL): BLOQ
[1]; 8 h, individual mice
  Concentration (ng/mL): BLOQ
[1]; 24 h, individual mice
  Concentration (ng/mL): BLOQ
OATP1B1; OATP1B1-HEK293 cells, test concentration 1 μM, inhibitor Rifamycin SV
  Uptake Ratio (−/+Inhibitor): 11.17
OATP1B1; OATP1B1-HEK293 vs mock HEK293, test concentration 1 μM
  Uptake Ratio (Transporter(−Inhibitor)/Mock(−Inhibitor)): 18.99
